Experimental data from patent US7700593B2, “Imidazo- and triazolo-pyridine compounds and methods of use thereof” (Amgen Inc., priority 2006, dated 2010).
Like-named read-outs stand apart in the source and are kept apart here.

What was measured:
p38α = p38α (Homo sapiens, UniProt Q16539); assay: p38 in-vitro HTRF enzyme assay; assay type: biochemical; settings: IC50 value ranges
Protocol: p38 In-Vitro HTRF Enzyme Assay
The compounds of the invention can be tested for their respective affinities for the p38 protein using a conventional p38 in-vitro enzyme activity assay. For example, a P38-alpha HTRF assay may be used to measure the protein's in-vitro phosphorylation activity, and the data analyzed using time resolved fluorimetry techniques (FRET). A p38 HTRF assay is as follows. The kinase reaction buffer for p38α, p38β, p38δ and p38γ HTRF assays consists of 50 mM Tris-pH 7.5, 5 mM MgCl2, 0.1 mg/mL BSA, 100 μM Na3VO4 and 0.5 mM DTT. The HTRF detection buffer contains 100 mM HEPES-pH 7.5, 100 mM NaCl, 0.1% BSA, 0.05% Tween-20, and 10 mM EDTA. Each compound was dissolved in 100% DMSO and serially diluted (3 fold, 10 point) in a polypropylene 96-well microtiter plate (drug plate). The final starting concentration of the compound in the p38α and p38β enzymatic assays was about 1 μM. The final starting concentration of each compound in the p38δ and p38γ enzymatic assays was about 10 μM. The p38α, p38β, p38δ and p38γ kinase reactions were carried out in a polypropylene 96-well black round bottom assay plate in total volume of 30 μL kinase reaction buffer. Appropriate concentration of purified and activated enzyme (recombinant human) was mixed with indicated concentration of ATP and 100 nM GST-ATF2-Avitag, in the presence or absence (HI control) of each compound. In the absence of enzyme, the background was measured as LO control. HI controls and LO controls contained only DMSO. The reaction was allowed to incubate for 1 hour at RT. […] After 60 minutes incubation at room temperature, the assay plate was read in a Discovery Plate Reader. The wells were excited with coherent 320 nm light and the ratio of delayed ([…] post excitation) emissions at […] (native europium fluorescence) and 665 nm (europium fluorescence transferred to allophycocyanin—an index of substrate phosphorylation) was determined (Park et al, 1999). The resulting data was analyzed by taking the proportion of substrate phosphorylated in the kinase reaction in the presence of each individual compound and comparing it with that phosphorylated in the presence of DMSO vehicle alone (HI control). The data was calculated using the formula: % control (POC)=(compound−average LO)/(average HI−average LO)*100. Data (consisting of POC and inhibitor concentration in μM) was fitted to a 4-parameter equation (y=A+((B−A)/(1+((x/C)^D))), where A is the minimum y (POC) value, B is the maximum y (POC), C is the x (compound concentration) at the point of inflection and D is the slope factor, using a Levenburg-Marquardt non-linear regression algorithm. The inhibition constant (Ki) of the inhibitor was estimated from the IC50 (compound concentration at the point of inflection C) using the Cheng-Prussof equation: Ki=IC50/(1+S/Km), where S is the ATP substrate concentration, and Km is the Michaelis constant for ATP as determined experimentally. All results were expressed as the mean±the standard error of the mean. Data acquisition and non-linear regression algorithms were performed using Activity Base v5.2 and XLfit software v4.1 respectively. Additional assay information may be obtained in Park Y W, Cummings R T, Wu L, et al. Homogeneous Proximity Tyrosine Kinase Assays Scintillation Proximity Assay versus Homogeneous Time-Resolved Fluorescence. Analytical Biochemistry. 1999; 269: 94-104.

THP1 cells = assay: Lipopolysaccharide-activated THP1 cell TNF production assay; assay type: cell-based, human; settings: LPS-induced TNF-α production in THP1 cells
Protocol: Lipopolysaccharide-Activated THP1 Cell TNF Production Assay
THP1 cells are resuspended in fresh THP1 media (RPMI 1640, 10% heat-inactivated FBS, 1×PGS, 1×NEAA, plus 30 μM βME) at a concentration of 1E6/mL. One hundred microliters of cells per well are plated in a polystyrene 96-well tissue culture. One microgram per mL of bacterial LPS is prepared in THP1 media and is transferred to the wells. Test compounds are dissolved in 100% DMSO and are serially diluted 3-fold in a polypropylene 96-well microtiter plate (drug plate). HI control and LO control wells contain only DMSO. One microliter of test compound from the drug plate followed by 10 μL of LPS are transferred to the cell plate. The treated cells are induced to synthesize and secrete TNF-α at 37° C. for 3 h. Forty microliters of conditioned media are transferred to a 96-well polypropylene plate containing 110 μL of ECL buffer (50 mM Tris-HCl pH 8.0, 100 mM NaCl, 0.05% Tween 20, 0.05% NaN3 and 1% FBS) supplemented with 0.44 nM MAB610 monoclonal Ab (R&D Systems), 0.34 nM ruthenylated AF210NA polyclonal Ab (R&D Systems) and 44 μg/mL sheep anti-mouse M280 Dynabeads (Dynal). After a 2 h incubation at room temperature with shaking, the reaction is read on the ECL M8 Instrument (IGEN Inc.). A low voltage is applied to the ruthenylated TNF-α immune complexes, which in the presence of TPA (the active component in Origlo), results in a cyclical redox reaction generating light at […]. The amount of secreted TNF-α in the presence of compound compared with that in the presence of DMSO vehicle alone (HI control) is calculated using the formula: % control (POC)=(cpd−average LO)/(average HI−average LO)*100. Data (consisting of POC and inhibitor concentration in μM) is fitted to a 4-parameter equation (y=A+((B−A)/(1+((x/C)^D))), where A is the minimum y (POC) value, B is the maximum y (POC), C is the x (cpd concentration) at the point of inflection and D is the slope factor) using a Levenburg-Marquardt non-linear regression algorithm.

monocytes = assay: Lipopolysaccharide-activated monocyte TNF production assay (LPS induced TNF release); assay type: cell-based, human; settings: LPS induced TNF release from monocytes, read-out: LPS induced TNFa
Protocol: Lipopolysaccharide-Activated Monocyte TNF Production Assay
Test compounds were evaluated in vitro for the ability to inhibit the production of TNF by monocytes activated with bacterial lipopolysaccharide (LPS). Fresh residual source leukocytes (a byproduct of plateletpheresis) were obtained from a local blood bank, and peripheral blood mononuclear cells (PBMCs) were isolated by density gradient centrifugation on Ficol-Paque Plus (Pharmacia). PBMCs were suspended at 2×10^6/mL in DMEM supplemented to contain 2% FCS, 10 mM, 0.3 mg/mL […], 100 U/mL penicillin G and […] streptomycin sulfate (complete media). Cells were plated into Falcon flat bottom, 96 well culture plates (200 μL/well) and cultured overnight at 37° C. and 6% CO2. Non-adherent cells were removed by washing with 200 μl/well of fresh medium. Wells containing adherent cells (˜70% monocytes) were replenished with 100 μL of fresh medium.
Preparation of Test Compound Stock Solutions
Test compounds were dissolved in […]. Compound stock solutions were prepared to an initial concentration of […]. Stocks were diluted initially to […] in complete media. Nine two-fold serial dilutions of each compound were then prepared in complete medium.
Treatment of Cells with Test Compounds and Activation of TNF Production with Lipopolysaccharide
One hundred microliters of each test compound dilution were added to microtiter wells containing adherent monocytes and 100 μL complete medium. Monocytes were cultured with test compounds for 60 min at which time 25 μL of complete medium containing 30 ng/mL lipopolysaccharide from E. coli K532 were added to each well. Cells were cultured an additional 4 hrs. Culture supernatants were then removed and TNF presence in the supernatants was quantified using an ELISA.
Flat bottom, 96 well Corning High Binding ELISA plates were coated overnight (4° C.) with 150 μL/well of 3 μg/mL murine anti-human TNF-α MAb (R&D Systems #MAB210). Wells were then blocked for 1 h at room temperature with 200 μL/well of CaCl2-free ELISA buffer supplemented to contain 20 mg/mL BSA (standard ELISA buffer: […], 150 mM NaCl, 2 mM CaCl2, 0.15 mM thimerosal, pH 7.4). Plates were washed and replenished with 100 μL of test supernatants (diluted 1:3) or standards. Standards consisted of eleven 1.5-fold serial dilutions from a stock of 1 ng/mL recombinant human TNF (R&D Systems). Plates were incubated at room temperature for 1 h on orbital shaker (300 rpm), washed and replenished with 100 μL/well of 0.5 μg/mL goat anti-human TNF-α (R&D systems #AB-210-NA) biotinylated at a 4:1 ratio. Plates were incubated for 40 min, washed and replenished with 100 μL/well of alkaline phosphatase-conjugated streptavidin (Jackson ImmunoResearch #016-050-084) at 0.02 μg/mL. Plates were incubated 30 min, washed and replenished with 200 μL/well of 1 mg/mL of p-nitrophenyl phosphate.
Standard curve data were fit to a second order polynomial and unknown TNF-α concentrations determined from their OD by solving this equation for concentration. TNF concentrations were then plotted vs. test compound concentration using a second order polynomial. This equation was then used to calculate the concentration of test compounds causing a 50% reduction in TNF production.

p38α, sequence (Q16539 whole entry): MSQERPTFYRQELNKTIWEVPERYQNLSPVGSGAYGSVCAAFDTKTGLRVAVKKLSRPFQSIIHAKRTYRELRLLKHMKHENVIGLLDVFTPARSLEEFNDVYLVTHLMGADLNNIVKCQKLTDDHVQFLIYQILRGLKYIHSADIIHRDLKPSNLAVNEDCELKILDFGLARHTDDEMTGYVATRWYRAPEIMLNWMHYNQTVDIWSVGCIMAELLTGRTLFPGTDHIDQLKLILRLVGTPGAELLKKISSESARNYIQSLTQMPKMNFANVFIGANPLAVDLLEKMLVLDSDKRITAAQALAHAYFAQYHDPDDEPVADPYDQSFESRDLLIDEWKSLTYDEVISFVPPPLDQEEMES

IC50 (p38α) [nM]	IC50 (THP1 cells; read-out: THP-1 cell assay) [nM]	IC50 (monocytes) [nM]	IC50 (THP1 cells; Homo sapiens, THP-1) [nM]	IC50 (monocytes; Homo sapiens, Monocyte) [nM]	Compound
25 to 100	250 to 1000	250 to 1000	–	–	4-methyl-3-(3-(4-methyl-1,3-oxazol-5-yl)[1,2,4]triazolo[4,3-a]pyridin-7-yl)-N-(1-methyl-1H-pyrazol-5-yl)benzamide [Example 58]
250 to 1000	–	–	1000 to 5000	1000 to 5000	Cc1ccc(C(=O)NC2CC2)cc1-c1ccn2c(N)nnc2c1 [Example 1, 3-(3-amino[1,2,4]triazolo[4,3-a]pyridin-7-yl)-N-cyclopropyl-4-methylbenzamide]
< 25	–	–	25 to 100	25 to 100	Cc1ccc(C(=O)NC2CC2)cc1-c1ccn2c(-c3ccccc3F)nnc2c1 [Example 2, N-cyclopropyl-3-(3-(2-fluorophenyl)[1,2,4]triazolo[4,3-a]pyridin-7-yl)-4-methylbenzamide]
< 25	–	–	< 25	< 25	Cc1ccc(C(=O)Nc2ccnn2C)cc1-c1ccn2c(-c3ccccc3Cl)nnc2c1 [Example 3, 3-(3-(2-chlorophenyl)[1,2,4]triazolo[4,3-a]pyridin-7-yl)-4-methyl-N-(1-methyl-1H-pyrazol-5-yl)benzamide]
< 25	–	–	25 to 100	25 to 100	Cc1ccc(C(=O)Nc2ccnn2C)cc1-c1ccn2c(-c3cnccc3C(F)(F)F)ncc2c1 [Example 4, 4-methyl-N-(1-methyl-1H-pyrazol-5-yl)-3-(3-(4-(trifluoromethyl)-3-pyridinyl)imidazo[1,5-a]pyridin-7-yl)benzamide]
< 25	–	–	< 25	25 to 100	Cc1ccc(C(=O)NC2CC2)cc1-c1cc(C)n2c(-c3ccccc3Cl)nnc2c1 [Example 6, 3-(3-(2-chlorophenyl)-5-methyl[1,2,4]triazolo[4,3-a]pyridin-7-yl)-N-cyclopropyl-4-methylbenzamide]
< 25	–	–	100 to 250	100 to 250	Cc1ccc(C(=O)NC2CC2)cc1-c1ccn2c(NC(C)C)nnc2c1 [Example 7, N-cyclopropyl-4-methyl-3-(3-((1-methylethyl)amino)[1,2,4]triazolo[4,3-a]pyridin-7-yl)benzamide]
< 25	–	–	100 to 250	1000 to 5000	Cc1ccc(C(=O)Nc2ccnn2C)cc1-c1ccn2c(-c3cc(F)cc(F)c3)ncc2c1 [Example 8, 3-(3-(3,5-difluorophenyl)imidazo[1,5-a]pyridin-7-yl)-4-methyl-N-(1-methyl-1H-pyrazol-5-yl)benzamide]
< 25	–	–	< 25	25 to 100	Cc1ccc(C(=O)Nc2ccnn2C)cc1-c1ccn2c(-c3ccccc3Cl)ncc2c1 [Example 9, 3-(3-(2-chlorophenyl)imidazo[1,5-a]pyridin-7-yl)-4-methyl-N-(1-methyl-1H-pyrazol-5-yl)benzamide]
< 25	–	–	< 25	25 to 100	Cc1ccc(C(=O)NC2CC2)cc1-c1ccn2c(-c3ccccc3Cl)nnc2c1 [Example 10, 3-(3-(2-chlorophenyl)[1,2,4]triazolo[4,3-a]pyridin-7-yl)-N-cyclopropyl-4-methylbenzamide]
< 25	–	–	< 25	–	Cc1ccc(C(=O)NC2CC2)cc1-c1ccn2c(C3(C(F)(F)F)CC3)nnc2c1 [Example 21, N-cyclopropyl-4-methyl-3-(3-(1-(trifluoromethyl)cyclopropyl)[1,2,4]triazolo[4,3-a]pyridin-7-yl)benzamide]
< 25	–	–	100 to 250	–	Cc1ccc(C(=O)NC2CC2)cc1-c1ccn2c(-c3ccc(S(C)(=O)=O)cc3Cl)nnc2c1 [Example 26, 3-(3-(2-chloro-4-(methylsulfonyl)phenyl)[1,2,4]triazolo[4,3-a]pyridin-7-yl)-N-cyclopropyl-4-methylbenzamide]
< 25	–	–	25 to 100	–	Cc1ccc(C(=O)NC2CC2)cc1-c1ccn2c(C(C)C)nnc2c1 [Example 27, N-cyclopropyl-4-methyl-3-(3-(1-methylethyl)[1,2,4]triazolo[4,3-a]pyridin-7-yl)benzamide]
